Measured values from patent publication US9499492B2, “4-(ortho)-fluorophenyl-5-fluoropyrimidin-2-yl amines containing a sulfoximine group” (BAYER PHARMA AKTIENGESELLSCHAFT, priority 2012, dated 2016).
Read-outs that look alike come from different tables or passages of the source.

What was measured:
CDK9/CycT1 [1] = target: T1, CDK9/CycT1 (Homo sapiens (Human), UniProt P50750); test: CDK9/CycT1 kinase assay (Method 1a); type: biochemical; conditions: for Selectivity CDK9/CDK2: derived from Methods 1a. and 2.; for IC50: 10 μM ATP
T1 sequence (P50750 whole entry): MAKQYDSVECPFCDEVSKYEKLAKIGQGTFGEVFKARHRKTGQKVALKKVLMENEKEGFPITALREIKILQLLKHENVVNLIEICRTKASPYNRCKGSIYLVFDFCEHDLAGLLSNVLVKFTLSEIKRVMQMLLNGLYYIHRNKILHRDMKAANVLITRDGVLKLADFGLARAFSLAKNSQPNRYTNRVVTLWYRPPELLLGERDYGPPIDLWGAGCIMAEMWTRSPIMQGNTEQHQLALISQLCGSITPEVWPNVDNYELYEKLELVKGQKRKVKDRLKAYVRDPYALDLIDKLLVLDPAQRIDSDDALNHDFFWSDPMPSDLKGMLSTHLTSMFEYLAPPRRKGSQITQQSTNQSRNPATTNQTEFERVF
T1 sequence (O60563 whole entry partner): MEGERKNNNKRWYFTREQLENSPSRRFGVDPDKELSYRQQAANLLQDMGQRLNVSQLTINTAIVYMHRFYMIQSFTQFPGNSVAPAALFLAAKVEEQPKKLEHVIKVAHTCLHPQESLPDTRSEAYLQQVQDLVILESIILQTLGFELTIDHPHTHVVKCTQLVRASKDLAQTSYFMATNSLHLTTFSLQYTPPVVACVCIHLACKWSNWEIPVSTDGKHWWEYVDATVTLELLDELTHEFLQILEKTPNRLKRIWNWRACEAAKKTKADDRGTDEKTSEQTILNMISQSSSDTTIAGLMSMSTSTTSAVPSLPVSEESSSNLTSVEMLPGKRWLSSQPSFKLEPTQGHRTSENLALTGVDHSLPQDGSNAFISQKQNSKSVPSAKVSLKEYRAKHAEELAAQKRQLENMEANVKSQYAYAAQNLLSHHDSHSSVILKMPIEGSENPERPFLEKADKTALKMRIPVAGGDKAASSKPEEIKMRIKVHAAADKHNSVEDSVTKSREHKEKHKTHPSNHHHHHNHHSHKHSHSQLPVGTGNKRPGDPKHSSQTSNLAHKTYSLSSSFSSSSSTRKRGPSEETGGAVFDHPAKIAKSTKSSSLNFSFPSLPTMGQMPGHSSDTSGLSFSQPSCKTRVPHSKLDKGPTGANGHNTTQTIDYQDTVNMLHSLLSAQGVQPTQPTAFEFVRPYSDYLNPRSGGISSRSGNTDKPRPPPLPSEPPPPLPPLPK
Text: 1a. CDK9/CycT1 Kinase Assay:
CDK9/CycT1-inhibitory activity of compounds of the present invention was quantified employing the CDK9/CycT1 TR-FRET assay as described in the following paragraphs:
(§1) Recombinant full-length His-tagged human CDK9 and CycT1, expressed in insect cells and purified by Ni-NTA affinity chromatography, were purchased from Invitrogen (Cat. No PV4131). As substrate for the kinase reaction biotinylated peptide biotin-Ttds-[…] (C-terminus in amid form) was used which can be purchased e.g. form the company JERINI Peptide Technologies (Berlin, Germany).
(§2) For the assay 50 nl of a 100 fold concentrated solution of the test compound in DMSO was pipetted into a black low volume 384 well microtiter plate (Greiner Bio-One, Frickenhausen, Germany), 2 μl of a solution of CDK9/CycT1 in aqueous assay buffer [50 mM Tris/HCl pH 8.0, 10 mM MgCl2, 1.0 mM dithiothreitol, 0.1 mM sodium ortho-vanadate, 0.01% (v/v) Nonidet-P40 (Sigma)] were added and the mixture was incubated for 15 min at 22° C. to allow pre-binding of the test compounds to the enzyme before the start of the kinase reaction. […] The concentration of CDK9/CycT1 was adjusted depending of the activity of the enzyme lot and was chosen appropriate to have the assay in the linear range, typical concentrations were in the range of 1 μg/ml.
(§3) The resulting mixture was incubated 1 h at 22° C. to allow the formation of complex between the phosphorylated biotinylated peptide and the detection reagents. Subsequently the amount of phosphorylated substrate was evaluated by measurement of the resonance energy transfer from the Eu-chelate to the streptavidine-XL. Therefore, the fluorescence emissions at 620 nm and 665 nm after excitation at 350 nm was measured in a HTRF reader, e.g. a Rubystar (BMG Labtechnologies, Offenburg, Germany) or a Viewlux (Perkin-Elmer). The ratio of the emissions at 665 nm and at 622 nm was taken as the measure for the amount of phosphorylated substrate.

[2] = tested on: A2780, human ovarian carcinoma cells; test: Proliferation assay, A2780 (Method 3); type: cell-based; conditions: A2780, 4 days, crystal violet, read-out: Inhibition of A2780 cell proliferation IC50
Procedure: (§4) After 24 hours, the cells of one plate (zero-point plate) were stained with crystal violet (see below), while the medium of the other plates was replaced by fresh culture medium (200 μl), to which the test substances were added in various concentrations (0 μM, as well as in the range of 0.001-10 μM; the final concentration of the solvent dimethyl sulfoxide was 0.5%). The cells were incubated for 4 days in the presence of test substances. Cell proliferation was determined by staining the cells with crystal violet: the cells were fixed by adding 20 μl/measuring point of an 11% glutaric aldehyde solution for 15 minutes at room temperature. After three washing cycles of the fixed cells with water, the plates were dried at room temperature. The cells were stained by adding 100 μl/measuring point of a 0.1% crystal violet solution (pH 3.0). After three washing cycles of the stained cells with water, the plates were dried at room temperature. The dye was dissolved by adding 100 μl/measuring point of a 10% acetic acid solution. The extinction was determined by photometry at a wavelength of 595 nm. The change of cell number, in percent, was calculated by normalization of the measured values to the extinction values of the zero-point plate (=0%) and the extinction of the untreated (0 μm) cells (=100%).

[3] = In vitro metabolic stability in rat hepatocytes (Method 5); type: in vitro ADME, Han Wistar rat; conditions: 1 μM test compound
Procedure: 5. Investigation of In Vitro Metabolic Stability in Rat Hepatocytes
Hepatocytes from Han Wistar rats were isolated via a 2-step perfusion method. After perfusion, the liver was carefully removed from the rat: the liver capsule was opened and the hepatocytes were gently shaken out into a Petri dish with ice-cold Williams medium E (purchased from Sigma Aldrich Life Science, St Louis, Mo.). The resulting cell suspension was filtered through sterile gaze in 50 ml falcon tubes and centrifuged at 50×g for 3 min at room temperature. The cell pellet was resuspended in 30 ml WME and centrifuged through a Percoll® gradient for 2 times at 100×g. The hepatocytes were washed again with Williams' medium E (WMA) and resuspended in medium containing 5% Fetal calf serum (FCS, purchased from Invitrogen, Auckland, NZ). Cell viability was determined by trypan blue exclusion.
For the metabolic stability assay liver cells were distributed in WME containing 5% FCS to glass vials at a density of 1.0×10^6 vital cells/ml. The test compound was added to a final concentration of 1 μM. During incubation, the hepatocyte suspensions were continuously shaken and aliquots were taken at 2, 8, 16, 30, 45 and 90 min, to which equal volumes of cold acetonitrile were immediately added. Samples were frozen at −20° C. over night, after subsequently centrifuged for 15 minutes at 3000 rpm and the supernatant was analyzed with an Agilent 1200 HPLC-system with LCMS/MS detection.
The half-life of a test compound was determined from the concentration-time plot. From the half-life the intrinsic clearances were calculated. Together with the additional parameters liver blood flow, amount of liver cells in vivo and in vitro.

[4] = tested on: HeLa, human cervical tumour cells; test: Proliferation assay, HeLa (Method 3); type: cell-based; conditions: 4 days, crystal violet, read-out: Inhibition of HeLa cell proliferation IC50
Procedure: as §4

[5] = tested on: MOLM-13 human acute myeloid leukemia cells; test: Proliferation assay, MOLM-13 (Cell Titre-Glo, Method 3); type: cell-based; conditions: MOLM-13, 72-hour exposure, read-out: Inhibition of MOLM-13 cell proliferation IC50
Procedure: Non-adherent MOLM-13 human acute myeloid leukemia cells (DSMZ ACC 554) were seeded at a density of 5,000 cells/well in a 96-well multititer plate in 100 μL of growth medium supplemented 10% fetal calf serum. After 24 hours, cell viability of one plate (zero-point plate) was determined with the Cell Titre-Glo Luminescent Cell Viability Assay (Promega), while 50 μL of test compound containing medium was added to the wells of the other plates (final concentrations in the range of 0.001-10 μM and DMSO controls; the final concentration of the solvent dimethyl sulfoxide was 0.5%). Cell viability was assessed after 72-hour exposure with the Cell Titre-Glo Luminescent Cell Viability Assay (Promega).

CDK9/CycT1 [6] = target: T1, CDK9/CycT1; test: CDK9/CycT1 high ATP kinase assay (Method 1b); type: biochemical; conditions: 2 mM ATP
Procedure: 1b. CDK9/CycT1 High ATP Kinase Assay
CDK9/CycT1-inhibitory activity of compounds of the present invention at a high ATP concentration after preincubation of enzyme and test compounds was quantified employing the CDK9/CycT1 TR-FRET assay as described in the following paragraphs.
as §1, with “were purchase” for “were purchased”, “JERINI peptide technologies” for “JERINI Peptide Technologies”
as §2, with “of 0.5” for “of 1”
as §3

CDK2/CycE = CDK2/CycE (Homo sapiens (Human), UniProt P24941); test: CDK2/CycE kinase assay (Method 2); type: biochemical; conditions: 10 μM ATP
Text: 2. CDK2/CycE Kinase Assay:
CDK2/CycE-inhibitory activity of compounds of the present invention was quantified employing the CDK2/CycE TR-FRET assay as described in the following paragraphs:
Recombinant fusion proteins of GST and human CDK2 and of GST and human CycE, expressed in insect cells (Sf9) and purified by Glutathion-Sepharose affinity chromatography, were purchased from ProQinase GmbH (Freiburg, Germany). As substrate for the kinase reaction biotinylated peptide biotin-Ttds-[…] (C-terminus in amid form) was used which can be purchased e.g. form the company JERINI Peptide Technologies (Berlin, Germany).
as §2, with “CDK2/CycE” for “CDK9/CycT1”, “130 ng/ml.” for “1 μg/ml.”
as §3, with “TR-FRET” for “HTRF”

Row | Structure (SMILES) | Selectivity CDK9/CDK2 (CDK9/CycT1 [1]) | IC50 [2] [µM] | maximal calculated oral bioavailability (Fmax) based on stability data in rat Hepatocytes [3] [%] | IC50 ([4]; Homo sapiens, 96 h) [µM] | IC50 ([5]; Homo sapiens, MOLM-13, 72 h) [µM] | IC50 [4] [µM] | IC50 [5] [µM] | IC50 (CDK9/CycT1 [6]) [µM] | IC50 (CDK2/CycE) [µM] | IC50 (CDK9/CycT1 [1]) [µM] | IC50 ([2]; Homo sapiens, A2780, 96 h) [µM]
1 | CS(=N)(=O)Cc1cc(Nc2ncc(F)c(-c3ccc(F)cc3F)n2)cc(C(F)(F)F)c1 (single isomer, unassigned) [Example 5, 4-(2,4-Difluorophenyl)-5-fluoro-N-{3-[(S-methylsulfonimidoyl)methyl]-5-(trifluoromethyl)phenyl}pyrimidin-2-amine] | 72 | 0.095 | 77 | 0.84 | 0.316 |  |  |  |  |  | 
2 | CS(=N)(=O)Cc1cc(Nc2ncc(F)c(-c3ccc(F)cc3F)n2)cc(C(F)(F)F)c1 (single isomer, unassigned) [Example 6, 4-(2,4-Difluorophenyl)-5-fluoro-N-{3-[(S-methylsulfonimidoyl)methyl]-5-(trifluoromethyl)phenyl}pyrimidin-2-amine] | 50 | 0.3 | 71 |  |  | 0.95 | 0.374 |  |  |  | 
3 | CS(=N)(=O)Cc1cc(Br)cc(Nc2ncc(F)c(-c3ccc(F)cc3F)n2)c1 (single isomer, unassigned) [Example 42, N-{3-Bromo-5-[(S-methylsulfonimidoyl)methyl]phenyl}-4-(2,4-difluorophenyl)-5-fluoropyrimidin-2-amine] | 30 |  |  | 1.06 | 0.946 |  |  | 0.334 | 0.47 | 0.015 | 1

Continued, values first:

Row | Selectivity CDK9/CDK2 (CDK9/CycT1 [1]) | IC50 [2] [µM] | maximal calculated oral bioavailability (Fmax) based on stability data in rat Hepatocytes [3] [%] | IC50 ([4]; Homo sapiens, 96 h) [µM] | IC50 ([5]; Homo sapiens, MOLM-13, 72 h) [µM] | IC50 [4] [µM] | IC50 [5] [µM] | IC50 (CDK9/CycT1 [6]) [µM] | IC50 (CDK2/CycE) [µM] | IC50 (CDK9/CycT1 [1]) [µM] | IC50 ([2]; Homo sapiens, A2780, 96 h) [µM] | Structure (SMILES)
4 | 198 |  |  |  | 0.092 | 0.178 |  | 0.008 | 0.94 | 0.005 | 0.096 | CS(=O)(Cc1cc(Nc2ncc(F)c(-c3ccc(F)cc3F)n2)cc(S(F)(F)(F)(F)F)c1)=NC#N (single isomer, unassigned) [Example 29, {[3-{[4-(2,4-Difluorophenyl)-5-fluoropyrimidin-2-yl]amino}-5-(pentafluoro-λ^6-sulfanyl)benzyl](methyl)oxido-λ^6-sulfanylidene}cyanamide]
5 | 360 | 0.167 |  |  |  | 0.359 | 0.141 | 0.009 | 1.5 | 0.004 |  | CS(=O)(Cc1cc(Nc2ncc(F)c(-c3ccc(F)cc3F)n2)cc(S(F)(F)(F)(F)F)c1)=NC#N (single isomer, unassigned) [Example 30, {[3-{[4-(2,4-Difluorophenyl)-5-fluoropyrimidin-2-yl]amino}-5-(pentafluoro-λ^6-sulfanyl)benzyl](methyl)oxido-λ^6-sulfanylidene}cyanamide]
6 | 16 |  |  | 0.501 | 0.281 |  |  | 0.007 | 0.89 | 0.054 | 0.279 | CS(=N)(=O)Cc1cc(Nc2ncc(F)c(-c3ccc(F)cc3F)n2)cc(S(F)(F)(F)(F)F)c1 (single isomer, unassigned) [Example 31, 4-(2,4-Difluorophenyl)-5-fluoro-N-{3-[(S-methylsulfonimidoyl)methyl]-5-(pentafluoro-λ^6-sulfanyl)phenyl}pyrimidin-2-amine]
